Measurements from ChEMBL document CHEMBL1201862, “PubChem BioAssay data set” (2004).
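In this assay, cells in 96-well plates receive the compound at five concentrations for 48 hours. Endpoints are linearly interpolated between the surrounding concentrations. The concentration for 50% growth inhibition is given as GI50.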 Calls of active or inactive are those of the source. Cut-off read from the data, not from the text of the source: active = GI50 up to about 1.1 µM and inactive = higher.

How the values were obtained:
Test in all cases: NCI anticancer screen, dose series, 48 h
HL-60 = test system: HL-60
M14 = test system: M14
OVCAR-4 = test system: OVCAR-4
SF-268 = test system: SF-268
ACHN = test system: ACHN
TK-10 = test system: TK-10
K562 = test system: K562
SNB-19 = test system: SNB-19
NCI-H460 = test system: NCI-H460
EKVX = test system: EKVX
HCC 2998 = test system: HCC 2998
786-0 = test system: 786-0
OVCAR-3 = test system: OVCAR-3
Hs-578T = test system: Hs-578T
SN12C = test system: SN12C
HCT-116 = test system: HCT-116
NCI/ADR-RES = test system: NCI/ADR-RES
CAKI-1 = test system: CAKI-1
A498 = test system: A498
LOX IMVI = test system: LOX IMVI
BT-549 = test system: BT-549
NCI-H226 = test system: NCI-H226
SW-620 = test system: SW-620
DU-145 = test system: DU-145
MOLT-4 = test system: MOLT-4
HOP-92 = test system: HOP-92
KM12 = test system: KM12
SK-OV-3 = test system: SK-OV-3
UACC-257 = test system: UACC-257
SK-MEL-2 = test system: SK-MEL-2
U-251 = test system: U-251
PC-3 = test system: PC-3
HT-29 = test system: HT-29
SF-539 = test system: SF-539
SNB-75 = test system: SNB-75
MDA-MB-231 = test system: MDA-MB-231
UACC-62 = test system: UACC-62
SK-MEL-5 = test system: SK-MEL-5
UO-31 = test system: UO-31
COLO 205 = test system: COLO 205
HOP-62 = test system: HOP-62
OVCAR-8 = test system: OVCAR-8
SF-295 = test system: SF-295
OVCAR-5 = test system: OVCAR-5
SK-MEL-28 = test system: SK-MEL-28
A549 = test system: A549
NCI-H23 = test system: NCI-H23
HCT-15 = test system: HCT-15
MDA-N = test system: MDA-N
Malme-3M = test system: Malme-3M
MDA-MB-435 = test system: MDA-MB-435
RXF 393 = test system: RXF 393
CCRF-CEM = test system: CCRF-CEM
MCF7 = test system: MCF7
RPMI-8226 = test system: RPMI-8226
NCI-H522 = test system: NCI-H522
IGROV-1 = test system: IGROV-1
SR = test system: SR
T47D = test system: T47D

CC(=O)Oc1c(N2CCCCC2)c(C(=O)c2ccccc2)c(O)c2ccn(N(C)C)c12
GI50 (HL-60): 6.38 µM (inactive) | GI50 (M14): 21.7 µM (inactive) | GI50 (OVCAR-4): 24.5 µM (inactive) | GI50 (SF-268): 21.9 µM (inactive) | GI50 (ACHN): 18.5 µM (inactive) | GI50 (TK-10): 16.7 µM (inactive) | GI50 (K562): 34.4 µM (inactive) | GI50 (SNB-19): 25.4 µM (inactive) | GI50 (NCI-H460): 21.2 µM (inactive) | GI50 (EKVX): 16.1 µM (inactive) | GI50 (HCC 2998): 18.5 µM (inactive) | GI50 (786-0): 17.5 µM (inactive) | GI50 (OVCAR-3): 19.6 µM (inactive) | GI50 (Hs-578T): 28.8 µM (inactive) | GI50 (SN12C): 18.5 µM (inactive) | GI50 (HCT-116): 9.51 µM (inactive) | GI50 (NCI/ADR-RES): 15.7 µM (inactive) | GI50 (CAKI-1): 15.4 µM (inactive) | GI50 (A498): 15.3 µM (inactive) | GI50 (LOX IMVI): 14.1 µM (inactive) | GI50 (BT-549): 20.6 µM (inactive) | GI50 (NCI-H226): 14.2 µM (inactive) | GI50 (SW-620): 17.3 µM (inactive) | GI50 (DU-145): 21.8 µM (inactive) | GI50 (MOLT-4): 0.736 µM (active) | GI50 (HOP-92): 23.9 µM (inactive) | GI50 (KM12): 10.9 µM (inactive) | GI50 (SK-OV-3): 20.8 µM (inactive) | GI50 (UACC-257): 16.8 µM (inactive) | GI50 (SK-MEL-2): 25.2 µM (inactive) | GI50 (U-251): 16.7 µM (inactive) | GI50 (PC-3): 10.9 µM (inactive) | GI50 (HT-29): 14.6 µM (inactive) | GI50 (SF-539): 18.5 µM (inactive) | GI50 (SNB-75): 13.2 µM (inactive) | GI50 (MDA-MB-231): 14 µM (inactive) | GI50 (UACC-62): 15 µM (inactive) | GI50 (SK-MEL-5): 15.9 µM (inactive) | GI50 (UO-31): 17.6 µM (inactive) | GI50 (COLO 205): 16.7 µM (inactive) | GI50 (HOP-62): 27.2 µM (inactive) | GI50 (OVCAR-8): 20.7 µM (inactive) | GI50 (SF-295): 15 µM (inactive) | GI50 (OVCAR-5): 25.5 µM (inactive) | GI50 (SK-MEL-28): 19.1 µM (inactive) | GI50 (A549): 12.4 µM (inactive) | GI50 (NCI-H23): 18.9 µM (inactive) | GI50 (HCT-15): 18 µM | GI50 (MDA-N): 17.9 µM (inactive) | GI50 (Malme-3M): 17.3 µM (inactive) | GI50 (MDA-MB-435): 19.7 µM (inactive) | GI50 (RXF 393): 20.7 µM (inactive) | GI50 (CCRF-CEM): 15.7 µM (inactive) | GI50 (MCF7): 10.5 µM (inactive) | GI50 (RPMI-8226): 7.01 µM (inactive)

CNC(=S)N/N=C(C)\C(=N/NC(=S)NC)c1ccccc1
GI50 (M14): 61.4 µM (inactive) | GI50 (SF-268): 74.8 µM (inactive) | GI50 (ACHN): 19.9 µM (inactive) | GI50 (TK-10): > 100 µM (inactive) | GI50 (SNB-19): 70.3 µM (inactive) | GI50 (NCI-H460): 25.7 µM (inactive) | GI50 (EKVX): 38 µM (inactive) | GI50 (NCI-H522): 28.9 µM (inactive) | GI50 (HCC 2998): > 100 µM (inactive) | GI50 (786-0): 50 µM (inactive) | GI50 (OVCAR-3): 86.9 µM (inactive) | GI50 (Hs-578T): 17.8 µM (inactive) | GI50 (HCT-116): 31.6 µM (inactive) | GI50 (NCI/ADR-RES): 39.3 µM (inactive) | GI50 (CAKI-1): 96.6 µM (inactive) | GI50 (LOX IMVI): 42.1 µM (inactive) | GI50 (BT-549): > 100 µM (inactive) | GI50 (NCI-H226): 63.7 µM (inactive) | GI50 (DU-145): > 100 µM (inactive) | GI50 (KM12): 64.9 µM (inactive) | GI50 (SK-OV-3): > 100 µM (inactive) | GI50 (UACC-257): > 100 µM (inactive) | GI50 (PC-3): 30.9 µM (inactive) | GI50 (SF-539): > 100 µM (inactive) | GI50 (SNB-75): 69.8 µM (inactive) | GI50 (MDA-MB-231): > 100 µM (inactive) | GI50 (UACC-62): > 100 µM (inactive) | GI50 (SK-MEL-5): 42.3 µM (inactive) | GI50 (UO-31): 30.7 µM (inactive) | GI50 (COLO 205): 55.5 µM (inactive) | GI50 (HOP-62): > 100 µM (inactive) | GI50 (SF-295): 34.4 µM (inactive) | GI50 (OVCAR-5): > 100 µM (inactive) | GI50 (A549): 29.2 µM (inactive) | GI50 (NCI-H23): > 100 µM (inactive) | GI50 (HCT-15): 53.1 µM | GI50 (MDA-N): 89.7 µM (inactive) | GI50 (Malme-3M): 76.7 µM (inactive) | GI50 (RXF 393): 56.8 µM (inactive) | GI50 (IGROV-1): 27.8 µM (inactive) | GI50 (MCF7): 82.8 µM (inactive)

O=C(c1ccco1)N(Cc1cccnc1)C(=S)N(Cc1cccnc1)C(=O)c1ccco1
GI50 (HL-60): 15.8 µM (inactive) | GI50 (M14): 12.9 µM (inactive) | GI50 (OVCAR-4): 20.4 µM (inactive) | GI50 (SF-268): 18.7 µM (inactive) | GI50 (ACHN): 17 µM (inactive) | GI50 (TK-10): 10.8 µM (inactive) | GI50 (K562): 4.84 µM (inactive) | GI50 (SNB-19): 30.8 µM (inactive) | GI50 (NCI-H460): 22.6 µM (inactive) | GI50 (EKVX): 19.8 µM (inactive) | GI50 (NCI-H522): 13.5 µM (inactive) | GI50 (HCC 2998): 17.5 µM (inactive) | GI50 (786-0): 3.06 µM (inactive) | GI50 (OVCAR-3): 6.35 µM (inactive) | GI50 (Hs-578T): 23.3 µM (inactive) | GI50 (SN12C): 10.6 µM (inactive) | GI50 (HCT-116): 7.67 µM (inactive) | GI50 (NCI/ADR-RES): 34.2 µM (inactive) | GI50 (CAKI-1): 19.9 µM (inactive) | GI50 (A498): 25.7 µM (inactive) | GI50 (LOX IMVI): 5.05 µM (inactive) | GI50 (BT-549): 23.2 µM (inactive) | GI50 (NCI-H226): 19.5 µM (inactive) | GI50 (SW-620): 5 µM (inactive) | GI50 (DU-145): 19.5 µM (inactive) | GI50 (MOLT-4): 11 µM (inactive) | GI50 (HOP-92): 17.7 µM (inactive) | GI50 (KM12): 3.9 µM (inactive) | GI50 (SK-OV-3): 33.6 µM (inactive) | GI50 (SR): 5.28 µM (inactive) | GI50 (UACC-257): 14 µM (inactive) | GI50 (SK-MEL-2): 12.5 µM (inactive) | GI50 (U-251): 16.3 µM (inactive) | GI50 (PC-3): 6.19 µM (inactive) | GI50 (HT-29): 17.6 µM (inactive) | GI50 (SF-539): 11.1 µM (inactive) | GI50 (SNB-75): 38.8 µM (inactive) | GI50 (MDA-MB-231): 8.75 µM (inactive) | GI50 (UACC-62): 15.2 µM (inactive) | GI50 (SK-MEL-5): 14.6 µM (inactive) | GI50 (T47D): 24.5 µM (inactive) | GI50 (UO-31): 15 µM (inactive) | GI50 (COLO 205): 4.02 µM (inactive) | GI50 (HOP-62): 13.1 µM (inactive) | GI50 (OVCAR-8): 19.4 µM (inactive) | GI50 (SF-295): 30.6 µM (inactive) | GI50 (OVCAR-5): 23.7 µM (inactive) | GI50 (SK-MEL-28): 20.1 µM (inactive) | GI50 (A549): 20.5 µM (inactive) | GI50 (NCI-H23): 23.8 µM (inactive) | GI50 (HCT-15): 13 µM | GI50 (Malme-3M): 16.7 µM (inactive) | GI50 (MDA-MB-435): 11.6 µM (inactive) | GI50 (RXF 393): 28.7 µM (inactive) | GI50 (CCRF-CEM): 2.74 µM (inactive) | GI50 (MCF7): 3.86 µM (inactive)
